Laboratory results taken from publication PMC3681608 (Nature chemical biology, 2010).
Counter-ions that a name gives are not always drawn.

Columns and labels:
CK1γ1 = CK1γ1 (Homo sapiens, UniProt Q9HCP0); test: fluorescence ligand dot blot with purified kinase at […] pyrvinium; format: binding
CK1ε = CK1ε (Homo sapiens, UniProt P49674); test: as above; format: binding
CK1ε, sequence (P49674 whole entry): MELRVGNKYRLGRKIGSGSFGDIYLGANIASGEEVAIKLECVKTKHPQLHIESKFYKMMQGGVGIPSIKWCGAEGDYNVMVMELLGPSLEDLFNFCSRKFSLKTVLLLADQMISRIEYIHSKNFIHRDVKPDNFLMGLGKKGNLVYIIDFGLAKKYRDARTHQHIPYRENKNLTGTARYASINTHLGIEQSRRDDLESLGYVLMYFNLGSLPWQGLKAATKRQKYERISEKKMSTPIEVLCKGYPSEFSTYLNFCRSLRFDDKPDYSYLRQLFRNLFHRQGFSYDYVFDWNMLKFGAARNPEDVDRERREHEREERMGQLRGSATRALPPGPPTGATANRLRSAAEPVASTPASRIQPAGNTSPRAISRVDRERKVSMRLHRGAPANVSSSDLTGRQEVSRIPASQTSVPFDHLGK

CK1γ1, sequence (Q9HCP0 whole entry): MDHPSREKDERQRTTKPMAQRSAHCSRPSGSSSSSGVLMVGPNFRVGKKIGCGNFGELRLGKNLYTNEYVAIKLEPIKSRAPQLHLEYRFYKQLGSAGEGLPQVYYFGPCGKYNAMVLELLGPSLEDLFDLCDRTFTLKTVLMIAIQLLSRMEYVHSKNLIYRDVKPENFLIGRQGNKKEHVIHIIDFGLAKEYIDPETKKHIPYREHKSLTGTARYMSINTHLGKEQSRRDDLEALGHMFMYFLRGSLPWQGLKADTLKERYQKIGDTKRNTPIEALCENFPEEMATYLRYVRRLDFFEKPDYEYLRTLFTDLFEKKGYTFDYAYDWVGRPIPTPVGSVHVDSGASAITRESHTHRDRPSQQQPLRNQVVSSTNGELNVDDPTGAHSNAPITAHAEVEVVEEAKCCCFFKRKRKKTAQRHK

Cc1cc(/C=C/c2ccc3cc(N(C)C)ccc3[n+]2C)c(C)n1-c1ccccc1 [compound 1, 6-(dimethylamino)-2-[2-(2,5-dimethyl-1-phenyl-1H-pyrrol-3-yl)ethenyl]-1-me thyl-quinolinium pamoate salt]
fluorescence ligand dot blot with purified kinase at 10 nM pyrvinium (CK1γ1): Pyrvinium binds all full-length CK1 isoforms tested but only activates CK1α. | fluorescence ligand dot blot with purified kinase at 10 nM pyrvinium (CK1ε): Pyrvinium binds all full-length CK1 isoforms tested but only activates CK1α.
